Experimental data published in paper PMC11071266, “The putative proton-coupled organic cation antiporter is involved in uptake of triptans into human brain capillary endothelial cells” (Fluids and Barriers of the CNS, 2024).
“Also recorded” adds a separate entry of the source. Like-named read-outs stand apart in the source and are kept apart here.

Assays:
H^+/OC antiporter [1] = experiment: Concentration-dependent cellular uptake into hCMEC/D3 cells (Michaelis-Menten kinetics); assay type: cell-based, human
Procedure: (§1) The immortalized human cerebral microvascular endothelial cell line (hCMEC/D3) was maintained in T75-flasks coated with collagen type I from calf skin (C9791, 18.7 μg/mL) and cultured in EBM®-2 medium (Lonza, Basel, Schweiz) supplemented with 5% (v/v) fetal bovine serum (FBS, 10270, Life Technologies, CA, USA or SH3008803, ThermoFisher Scientific, MA, USA), 100 U/mL penicillin and 100 μg/ml streptomycin, 1 ng/mL human basic fibroblast growth factor (bFGF), 1.4 μM hydrocortisone, 1% (v/v) chemically defined lipid concentrate (ThermoFisher Scientific, MA, USA), 10 mM N-2-hydroxyethylpiperazine-N-2-ethane sulfonic acid (HEPES) and 5 μg/mL ascorbic acid (5% CO2, 37 °C). […] For experiments, cells were seeded into 24-well plates (6.7·10^4 cells/cm^2) and cultured for four continuous days. The cells were used for experiments between passage 3–31.
(§2) The cells were equilibrated in hHBSS with or without inhibitor for 15 min (37 °C, 90 rpm). The compound of interest was spiked into the hHBSS followed by incubation for a designated time. The timeframe of the initial uptake rate was validated into hCMEC/D3 cells (Fig. 1 and Additional file 1). The experiment was terminated by washing three times with ice-cold HBSS supplemented with 0.0375% (v/v) sodium bicarbonate.
To assess the concentration-dependent uptake, the uptake flux was fitted to the Michaelis–Menten equation, Eq. 1.1 Jss=Jmax[S]/Km+[S] where Jss represents flux under steady state, Jmax is the maximal flux, [S] is the substrate concentration, and Km is the Michaelis–Menten constant.
The hCMEC/D3 cells were used for concentration-dependent uptake studies between passage 21–23 (pyrilamine), 11–13 (oxycodone), 12–14 (almotriptan), 16–18 (eletriptan), and 12–14 (sumatriptan).
(§3) The cells were permeabilized using 50% (v/v) acetonitrile (HPLC LC–MS grade, VWR International S.A.S, Soeborg, Denmark) in ultrapure water (ELGA, Buckinghamshire, England) for 10 min at room temperature. Thereafter, the cells were scraped off the bottom of the wells and transferred to HPLC vials. Samples from bidirectional transport experiments were transferred directly into HPLC vials. All samples were stored at – 18 °C for later analysis. Calibration curves with standards in the range of 1 or 5–1000 ng/mL were dissolved in 50% (v/v) acetonitrile in ultrapure water (ELGA, Buckinghamshire, England), or in hHBSS(-) for analysis of bidirectional transport samples.
(§4) Liquid chromatography tandem mass spectrometry (LC–MS/MS) were performed using electrospray ionization in positive mode on a micromass Quattro micro™ API tandem quadrupole mass spectrometer (Waters, MA, USA) or an Ultivo triple quadrupole mass spectrometer (Agilent Technologies, CA, USA) coupled to Agilent HPLC system 1100 Series or 1260 Series (Agilent Technologies, CA, USA California), respectively. Applied columns were an InfinityLab Poroshell 120 EC-C18 (3.0 × 50 mm; 2.7 micron, Agilent Technologies, CA, USA) or a Kinetex 2.6 μm XB-C18 (100 Å, 100 × 4.6 mm, Phenomenex Inc., CA, USA). An overview of applied HPLC and MS/MS parameters can be found in Additional file 2 and Additional file 3, respectively. The data acquisition software was MassLynx (V4.1, Waters, MA, USA).
The protein content of hCMEC/D3 cells was determined for normalization purposes. Cells were washed with ice-cold phosphate buffered saline following cell lysis in cell extraction buffer (FNN0011, Thermo Fisher Scientific, MA, USA) supplemented with 1 × cOmplete™ Protease Inhibitor Cocktail (04693116001, Roche, Basel, Schweiz), 1 mM phenylmethylsulfonyl fluoride, and […] for 30 min on ice.

[2] = C57, mouse, 1 µM
Excerpt: C57 mice were used to prepare blank plasma and brain matrices throughout all binding studies.

H^+/OC antiporter [3] = system: H^+/OC antiporter; set-up: method as in PMID 35955563; settings: trans-stimulation in hCMEC/D3 cells; cited from earlier work
H^+/OC antiporter [4] = experiment: Inhibition of [^3H]-pyrilamine uptake into hCMEC/D3 cells; assay type: cell-based, human; settings: [^3H]-pyrilamine 1 µCi/mL, 48 nM, read-out: Apparent IC50 on [^3H]-pyrilamine uptake
Procedure: as §1, §2
The inhibitory constant at 50% inhibition (IC50) was determined by fitting the uptake flux (Jss) as function of the logarithmic inhibitor concentration to Eq. 2.2 Jss=Jmin+(Jmax-Jmin)/1+10^logIC50-InH where [I] is the inhibitor concentration, nH is the Hill coefficient.
The hCMEC/D3 cells were used for [^3H]-pyrilamine inhibition studies between passage 3–6 (pyrilamine, oxycodone), 16–18 (almotriptan), 7–13 (eletriptan), 25–27 (frovatriptan), 3–8 (naratriptan), 16–18 (rizatriptan), 12–14 (sumatriptan), and 14–16 (zolmitriptan).
The cells were permeabilized using 0.1% (v/v) Triton X-100 in ultrapure water (ELGA, Buckinghamshire, England) for 10 min at room temperature. Thereafter, the cells were scraped off the bottom of the wells, transferred to scintillation vials, and mixed with 2 mL of Ultima Gold 241 TM (Perkin Elmer, MA, USA). The samples were analyzed using a Tri-Carb 2910 TR Liquid Scintillation Analyzer (Perkin Elmer, MA, USA).

[5] = set-up: method as in PMID 32173558; settings: cited from earlier work
[6] = Physicochemical properties extracted from databases
Excerpt: Triptans are a relatively homogeneous group of drug compounds with similar physicochemical properties, including molecular weights < 400 g/mol and a low to moderate lipophilicity (cLogD values ranging from − 2.1–0.18). […] As a consequence, it is unlikely that triptans cross the brain microvascular endothelium through passive diffusion to a clinically relevant extent. Table 1 summarizes structures and physicochemical properties of the triptans, as well as oxycodone and pyrilamine, which are two prototypical H^+/OC antiporter substrates included in this study.

P-gp = P-gp (Homo sapiens, UniProt P08183); experiment: Bidirectional transport across IPEC-J2 MDR1 monolayers; settings: pH 7.4
Procedure: The porcine ileum epithelial cell line IPEC-J2 transfected with human MDR1 [37] was maintained in T175-flasks and cultured in Dulbecco's Modified Eagle Medium/Nutrient Mixture F-12, supplemented with 10% (v/v) FBS (SH3008803, ThermoFisher Scientific, MA, USA), 100 U/mL penicillin and 100 μg/mL streptomycin, 2 mM L-glutamine, and 1 mM sodium pyruvate. The culture medium was supplemented with 2 µg/mL puromycin during maintenance. Culture media was changed every second or third day. Cells were passaged using trypsin–EDTA solution 10x (5–10 min, 5% CO2, 37 °C). For experiments, cells were either seeded into 24-well plates (1·10^5 cells/cm^2) and cultured for 2 days or seeded on Transwell® polyester inserts (3460, 1.12 cm^2, pore size 0.4 µm) (3.57·10^4 cells/cm^2) and cultured for 15–17 days. IPEC-J2 MDR1 cells were used for experiments between passage 2–4.
Bidirectional transport studies were conducted using IPEC-J2 MDR1 cell monolayers cultured on semipermeable Transwell® polyester inserts (Corning Inc., NY, USA, 3460, 1.12 cm^2, pore size 0.4 µm). The cells were washed twice with 37 °C hHBSS. […]
The accumulated amount of drug (Q) was calculated for each time-point using Eq. 3.3 Q=Vs∑n-1nCn-1+CnVt where Vs represents the sample volume, Vt the total volume of the receiver compartment, Cn is the concentration of the sample n.
Steady state flux (Jsteady state) was calculated as the slope of the linear part of the accumulated amount (Q) in the receiver compartment as function of time from Eq. 4.4 Jss=ΔQ/Δt·A where t represents time and A is the area of the permeable support.
The apparent permeability (Papp) was calculated from Eq. 5.5 Papp=Jss/Cdonor where Cdonor represents the initial concentration in the donor compartment.
Efflux ratios (ER) were calculated as the ratio of the apparent permeability in the basolateral to apical direction Papp(B-A) and the permeability in the apical to basolateral direction Papp(A-B) using Eq. 6.6 ER=PappB-A/Papp(A-B)

H^+/OC antiporter [7] = experiment: Cellular uptake into hCMEC/D3 cells in absence or presence of pyrilamine or oxycodone; assay type: cell-based, human; settings: triptan 50 µM, asterisks = P level; for Inhibition by oxycodone (of the compound's uptake): 500 µM oxycodone; for Inhibition by pyrilamine (of the compound's uptake): 500 µM pyrilamine
Procedure: as §2
The hCMEC/D3 cells were used for time-dependent uptake studies between passage 3–5 (pyrilamine), 7–9 (oxycodone), 6–8 (almotriptan), and 24–31 (eletriptan).
The hCMEC/D3 cells were used for uptake studies of almotriptan, eletriptan, and sumatriptan in the presence of pyrilamine and oxycodone between passage 21–23.
as §3, §4

Sequence of P-gp (P08183 whole entry): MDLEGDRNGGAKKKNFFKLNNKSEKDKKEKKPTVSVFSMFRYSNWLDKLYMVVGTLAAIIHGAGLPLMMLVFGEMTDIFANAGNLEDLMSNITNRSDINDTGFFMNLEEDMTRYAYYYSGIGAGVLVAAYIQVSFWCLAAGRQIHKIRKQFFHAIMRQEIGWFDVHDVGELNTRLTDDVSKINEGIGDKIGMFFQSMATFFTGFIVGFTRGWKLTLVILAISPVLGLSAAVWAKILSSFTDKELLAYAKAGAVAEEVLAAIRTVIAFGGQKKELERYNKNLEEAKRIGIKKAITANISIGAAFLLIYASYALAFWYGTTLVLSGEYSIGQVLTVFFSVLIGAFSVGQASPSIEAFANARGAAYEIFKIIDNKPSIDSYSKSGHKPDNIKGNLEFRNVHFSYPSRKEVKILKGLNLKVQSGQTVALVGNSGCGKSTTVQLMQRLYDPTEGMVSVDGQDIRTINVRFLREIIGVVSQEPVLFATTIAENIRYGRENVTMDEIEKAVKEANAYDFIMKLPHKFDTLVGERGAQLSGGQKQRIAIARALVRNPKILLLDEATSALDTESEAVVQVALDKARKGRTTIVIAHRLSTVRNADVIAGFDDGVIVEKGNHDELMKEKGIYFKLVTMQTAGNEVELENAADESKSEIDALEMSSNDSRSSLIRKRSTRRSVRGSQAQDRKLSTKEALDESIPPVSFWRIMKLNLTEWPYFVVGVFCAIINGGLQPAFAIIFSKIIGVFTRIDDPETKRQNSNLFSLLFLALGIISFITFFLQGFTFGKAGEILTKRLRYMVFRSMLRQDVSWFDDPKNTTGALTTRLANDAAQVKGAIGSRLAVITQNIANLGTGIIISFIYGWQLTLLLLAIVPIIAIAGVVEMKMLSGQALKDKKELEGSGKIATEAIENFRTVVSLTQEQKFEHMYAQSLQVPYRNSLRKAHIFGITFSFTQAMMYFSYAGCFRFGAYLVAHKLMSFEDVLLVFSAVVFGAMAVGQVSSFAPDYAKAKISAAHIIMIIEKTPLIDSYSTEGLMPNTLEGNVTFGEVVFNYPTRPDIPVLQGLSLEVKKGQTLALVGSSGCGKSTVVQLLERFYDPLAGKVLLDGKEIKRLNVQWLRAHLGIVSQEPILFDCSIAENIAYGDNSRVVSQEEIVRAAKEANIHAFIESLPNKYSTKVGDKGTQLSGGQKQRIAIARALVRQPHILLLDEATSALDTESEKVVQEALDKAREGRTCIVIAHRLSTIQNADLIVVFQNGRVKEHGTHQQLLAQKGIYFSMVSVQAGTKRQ

## CN1CCC[C@@H]1Cc1c[nH]c2ccc(CCS(=O)(=O)c3ccccc3)cc12 [Eletriptan]
H^+/OC antiporter [1]; hCMEC/D3 cells, tested concentration range
  Concentration-dependent uptake (saturability): reaching saturation within a 500 µM concentration
H^+/OC antiporter [1]; summary of uptake and inhibition studies in hCMEC/D3 cells
  Association with H^+/OC antiporter: Substrate potent inhibitor
H^+/OC antiporter [1]; uptake into hCMEC/D3 cells
  Jmax: 2.2 ± 0.7 nmol·min^−1·mg protein^−1
H^+/OC antiporter [1]; uptake into hCMEC/D3 cells, read-out: Apparent Km
  Km: 89 ± 38 µM
[2]
  fu,plasma: 40%
[2]; plasma
  fu,brain: 8.3%
H^+/OC antiporter [3]
  H^+/OC antiporter substrate: might be a substrate of the H^+/OC antiporter
H^+/OC antiporter [4]; listed as eletriptan
  IC50: ~15 µM
H^+/OC antiporter [4]
  IC50: 15 ± 4 µM
[5]
  Clinically relevant human peak plasma concentrations: 94 to 200 ng/mL
[5]; human
  Clinically relevant plasma concentrations: 246 to 523 nM
[6]
  Overall charge pH 7.4: Positive
P-gp
  Papp A→B at 120 min, 50 µM: 0.82 ± 0.05 ×10⁻⁶ cm/s
  Papp B→A at 120 min, 50 µM: 24 ± 2 ×10⁻⁶ cm/s
  efflux ratio at 120 min, 50 µM: 28.9 ± 1.8
H^+/OC antiporter [7]
  Inhibition by oxycodone (of the compound's uptake): yes (*)
  Inhibition by pyrilamine (of the compound's uptake): yes (****)
H^+/OC antiporter [7]; listed as eletriptan
  Inhibition by oxycodone (of the compound's uptake): inhibited the uptake of eletriptan in a statistically significant manner
  Inhibition by pyrilamine (of the compound's uptake): inhibited the uptake of eletriptan in a statistically significant manner; also recorded: almost be completely inhibited
